Reference: patent publication US20260199382A1, “PHOSPHORAMIDATE MONOSACCARIDES, PHARMACEUTICAL COMPOSITIONS, AND DIAGNOSTIC AND THERAPEUTIC APPLICATIONS” (Surio Therapeutics Co., LTD., priority 2022, published 2026)

Assays:
Type in all cases: cell-based
Conditions in all cases: 48 h; for AAM % / PBS %: 25 μM; for AAM %: mean fluorescence compared with Ac4ManNAz (AAM) positive control; for PBS %: mean fluorescence compared with PBS negative control; for Mean FL (×10^5): compound 25 μM, 37° C., DBCO-biotin then streptavidin-Cy5, mean fluorescence of live cells
MDA-MB-231 = assay: Flow cytometry analysis of cell labeling (labeling efficiency of azido compounds) in MDA-MB-231
Procedure: (§1) Cells (2.0×10^5 cells/mL, 2 mL) were seeded in a 6-well culture plate and attached at 37° C. overnight. After washed thrice with PBS, the cells were incubated with an azido compound provided herein (25 μM) at 37° C. for 48 h. After washed thrice with PBS, the cells were incubated with DBCO-biotin (50 μM) in 500 μL serum free DMEM at 37° C. for 1 h. The cells were washed thrice with PBS and then incubated with streptavidin-Cy5 (5 μg/mL) in 500 μL serum free DMEM at 37° C. for 1 h. The cells were washed thrice with PBS, followed by addition of 300 μL 1× trypsin/EDTA for digestion. The lifted cells were transferred to a 1.5 mL EP tube, centrifuge at 1,000 rpm for 3 min, and washed with PBS once. Finally, 500 μL PBS containing 4% PFA was added to the cell pellet to fix the cells. The cell suspension was transferred to a flow tube and mixed with 10 μL of a PI working solution (50 μg/mL) at room temperature for 30 min before being subjected to flow cytometry.
(§2) Flow cytometry was used to characterize the labeling efficiency of a compound provided herein. After cells were labeled with an azido group, DBCO-biotin was added to specifically react with the azido group. Avidin-Cy5 was added bind to the cell surface biotin for a flow cytometry analysis. Dead cells were stained with PI and excluded from the analysis. Results were presented as the mean fluorescence of live cells, compared with PBS as a negative control and Ac4ManNAz (AAM) as a positive control, Ac4ManNAz (AAM, CAS: 361154-30-5).

OVCAR3 = assay: Flow cytometry analysis of cell labeling (labeling efficiency of azido compounds) in OVCAR3
Procedure: as §1, §2

A549 cells = assay: Flow cytometry analysis of cell labeling (labeling efficiency of azido compounds) in A549 cells
Procedure: as §1, §2

Compound	AAM % (MDA-MB-231) [%]	PBS % (MDA-MB-231) [%]	Mean FL (×10^5) (MDA-MB-231)	AAM % (OVCAR3) [%]	PBS % (OVCAR3) [%]	Mean FL (×10^5) (OVCAR3)	AAM % (A549 cells) [%]	PBS % (A549 cells) [%]	Mean FL (×10^5) (A549 cells)
CC(=O)OC1O[C@H](COP(=O)(N[C@@H](C)C(=O)OCc2cccc3ncccc23)Oc2ccccc2)[C@@H](OC(C)=O)[C@H](OC(C)=O)[C@@H]1NC(=O)CN=[N+]=[N-] (stereo partly drawn) [Compound A27, Acetyl 2-(2-azidoacetylamino)-2-deoxy-3,4-di-O-acetyl-6-O—(((S)-1-quinolin-5-ylmethoxycarbonylethylamino)(phenoxy)phosphoryl)-D-mannopyranoside]	109	716	13.6 ×10^5	93.3	19231	2.5 ×10^5	–	–	–
CC(=O)OC1OC(COP(=O)(N[C@@H](C)C(=O)OC(C)c2ccccc2)Oc2ccccc2)C(OC(C)=O)C(OC(C)=O)C1NC(=O)CN=[N+]=[N-] (stereo partly drawn) [Compound A3]	–	–	–	–	–	–	48	294	8.82 ×10^5
CC(=O)OC1OC(COP(=O)(NC(C)(C)C(=O)OC(C)c2ccccc2)Oc2ccccc2)C(OC(C)=O)C(OC(C)=O)C1NC(=O)CN=[N+]=[N-] [Compound A4, 2-(2-Azidoacetylamino)-2-deoxy-3,4-di-O-acetyl-6-O-((1-methyl-1-(1-phenyl-ethoxycarbonyl)ethylamino)(phenoxy)phosphoryl)-D-mannopyranoside]	–	–	–	–	–	–	51	311	9.32 ×10^5
CCCCCCOC(=O)[C@H](C)NP(=O)(OC[C@H]1OC(OC(C)=O)[C@@H](NC(=O)CN=[N+]=[N-])[C@@H](OC(C)=O)[C@@H]1OC(C)=O)Oc1ccccc1 (stereo partly drawn) [Compound A22, Acetyl 2-(2-azidoacetylamino)-2-deoxy-3,4-di-O-acetyl-6-O—(((S)-1-hexoxy-carbonylethylamino)(phenoxy)phosphoryl)-D-mannopyranoside]	104	684	13.0 ×10^5	–	–	–	–	–	–
CC(=O)OC1O[C@H](COP(=O)(N[C@@H](C)C(=O)OC(C)(C)C)Oc2ccccc2)[C@@H](OC(C)=O)[C@H](OC(C)=O)[C@@H]1NC(=O)CN=[N+]=[N-] (stereo partly drawn) [Compound A20, acetyl 2-(2-azidoacetylamino)-2-deoxy-3,4-di-O-acetyl-6-O—(((S)-1-tert-butoxy-carbonylethylamino)(phenoxy)phosphoryl)-D-mannopyranoside]	51	338	6.43 ×10^5	–	–	–	–	–	–
CC(=O)OC1O[C@H](COP(=O)(N[C@@H](C)C(=O)OCc2ccnc3ccccc23)Oc2ccccc2)[C@@H](OC(C)=O)[C@H](OC(C)=O)[C@@H]1NC(=O)CN=[N+]=[N-] (stereo partly drawn) [Compound A26, Acetyl 2-(2-azidoacetylamino)-2-deoxy-3,4-di-O-acetyl-6-O—(((S)-1-quinolin-4-ylmethoxycarbonylethylamino)(phenoxy)phosphoryl)-D-mannopyranoside]	144	947	18.0 ×10^5	89.6	18462	2.4 ×10^5	–	–	–
CCCCOC(=O)[C@H](C)NP(=O)(OC[C@H]1OC(OC(C)=O)[C@@H](NC(=O)CN=[N+]=[N-])[C@@H](OC(C)=O)[C@@H]1OC(C)=O)Oc1ccccc1 (stereo partly drawn) [Compound A18, acetyl 2-(2-azidoacetylamino)-2-deoxy-3,4-di-O-acetyl-6-O—(((S)-1-butoxy-carbonylethylamino)(phenoxy)phosphoryl)-D-mannopyranoside]	99	653	12.4 ×10^5	–	–	–	–	–	–
CC(=O)OC1O[C@H](COP(=O)(N[C@@H](C)C(=O)OCc2ccncc2)Oc2ccccc2)[C@@H](OC(C)=O)[C@H](OC(C)=O)[C@@H]1NC(=O)CN=[N+]=[N-] (stereo partly drawn) [Compound A25, Acetyl 2-(2-azidoacetylamino)-2-deoxy-3,4-di-O-acetyl-6-O—(((S)-1-pyridin-4-ylmethoxycarbonylethylamino)(phenoxy)phosphoryl)-D-mannopyranoside]	–	–	–	26.9	5538	0.72 ×10^5	–	–	–
CC(=O)OC1O[C@H](COP(=O)(N[C@@H](C)C(=O)OCc2cccnc2)Oc2ccccc2)[C@@H](OC(C)=O)[C@H](OC(C)=O)[C@@H]1NC(=O)CN=[N+]=[N-] (stereo partly drawn) [Compound A24, Acetyl 2-(2-azidoacetylamino)-2-deoxy-3,4-di-O-acetyl-6-O—(((S)-1-pyridin-3-ylmethoxycarbonylethylamino)(phenoxy)phosphoryl)-D-mannopyranoside]	–	–	–	28.7	5923	0.77 ×10^5	–	–	–
CC(=O)OC1OC(COP(=O)(N[C@H](C(=O)OC(C)c2ccccc2)C(C)C)Oc2ccccc2)C(OC(C)=O)C(OC(C)=O)C1NC(=O)CN=[N+]=[N-] (stereo partly drawn) [Compound A5, 2-(2-Azidoacetylamino)-2-deoxy-3,4-di-O-acetyl-6-O-(((1S)-1-(1-phenylethoxy-carbonyl)-2-methylpropylamino)(phenoxy)phosphoryl)-D-mannopyranoside]	–	–	–	–	–	–	20	118	3.55 ×10^5
CC(=O)OC[C@H]1OC(OP(=O)(N[C@@H](C)C(=O)OC(C)c2ccccc2)Oc2ccccc2)[C@@H](NC(=O)CN=[N+]=[N-])[C@@H](OC(C)=O)[C@@H]1OC(C)=O (stereo partly drawn) [Compound B1, (((1S)-1-(1-Phenylethoxy-carbonyl)ethylamino)(phenoxy)phosphoryl) 2-(2-azidoacetylamino)-2-deoxy-3,4,6-tri-O-acetyl-D-mannopyranoside]	–	–	–	–	–	–	42	256	7.67 ×10^5
CCC(CC)COC(=O)[C@H](C)NP(=O)(OC[C@H]1OC(OC(C)=O)[C@@H](NC(=O)CN=[N+]=[N-])[C@@H](OC(C)=O)[C@@H]1OC(C)=O)Oc1ccccc1 (stereo partly drawn) [Compound A23, Acetyl 2-(2-azidoacetylamino)-2-deoxy-3,4-di-O-acetyl-6-O—(((S)-1-(2-ethyl-butoxy)carbonylethylamino)(phenoxy)phosphoryl)-D-mannopyranoside]	98	642	12.2 ×10^5	–	–	–	–	–	–
CC(=O)OC1O[C@H](COP(=O)(N[C@@H](C)C(=O)OC(C)C)Oc2ccccc2)[C@@H](OC(C)=O)[C@H](OC(C)=O)[C@@H]1NC(=O)CN=[N+]=[N-] (stereo partly drawn) [Compound A1, acetyl 2-(2-azidoacetylamino)-2-deoxy-3,4-di-O-acetyl-6-O—(((S)-1-isopropoxy-carbonylethylamino)(phenoxy)phosphoryl)-D-mannopyranoside]	101	663	12.6 ×10^5	–	–	–	89	540	16.2 ×10^5
